Measured values taken from article PMC4819177, “The rational search for selective anticancer derivatives of the peptide Trichogin GA IV: a multi-technique biophysical approach” (Scientific Reports, 2016).
“Also recorded” adds a separate entry of the source. Square brackets hold non-standard residues; d marks the D form. Peptide text beside a SMILES is read from it. * marks the point of attachment. TOAC = CC1(C)CC(N)(C(=O)O)CC(C)(C)N1[O]; Leu(ol) = CC(C)C[C@H](N)CO; Octanoyl = CCCCCCCC(=O)*; Api = NC1(C(=O)O)CCNCC1; Aib = CC(C)(N)C(=O)O

Legend:
HeLa cells [1] = format: cell-based, human; conditions: MTT, 24 h exposure; average error about ±2 μM
Method: (§1) We studied the effect of TG and its analogues on normal (HDF) and transformed (T67 and HeLa) cells. The cellular viability was assessed after 24 hours of exposure to the peptides by the MTT assay (Table 1).
(§2) Culture media, foetal bovine serum (FBS) and antibiotics were purchased from Carlo Erba Dasit Group. The T67 human glioma cell line was derived by Lauro et al.[49] from a World Health Organization (WHO) Grade III gemistocytic astrocytoma. Human dermal fibroblasts (HDF) were obtained by ATCC. HDF were cultured in Fibroblast Basal Medium (ATCC) supplemented with 10% FBS. T67 and HeLa cells were cultured in Dulbecco’s modified Eagle’s medium (MMedical) supplemented with 10% FBS, 100 UI/ml penicillin, 100 μg/ml streptomycin, and 40 μg/ml gentamycin, and kept in a 5% CO2 atmosphere at 37 °C, with saturating humidity. Cell viability and number were measured by trypan blue exclusion method.
(§3) Cytotoxicity of peptides was estimated using a MTT assay. All the chemicals used for this assay have been purchased by sigma Aldrich and used without further purification. T67, HeLa and HDF cells were seeded in 24-well plates at 1 × 10^5 cells/well. Experiments were performed after 24 h of incubation at 37 °C in 5% CO2. After this time cells were washed and treated for 24 h with different concentrations of peptides; the cells are then incubated for 60 mins with 300 μM of MTT in culture medium. The absorbance of each well was measured at 450 nm with a spectrofluorometer (Wallac Victor multilabel counter; Perkin-Elmer Inc., Boston, MA, USA). Data are reported as the mean ± standard deviation of at least three independent experiments.

[2] = tested on: T67 human glioma cell line; format: cell-based; conditions: MTT, 24 h exposure; average error about ±2 μM
Method: as §1, §2, §3

[3] = tested on: human dermal fibroblasts (HDF); format: cell-based; conditions: MTT, 24 h exposure; average error about ±2 μM
Method: as §1, §2, §3

T67, HeLa and HDF cells = test: MTT cytotoxicity assay, summary over the three cell lines; format: cell-based, human; conditions: 24 h
Method: as §1, §3

[4] = Dynamic light scattering of POPC SUV with peptides; format: physicochemical; conditions: POPC SUV 2 mM, P:L 1:100
Method: The dimension of the SUV prepared by sonication was verified by dynamic light scattering (DLS). Additionally we checked if the peptides at a P:L ratio 1:100, the ratio used for EPR experiments, alter the dimension of the SUV. The experiments were perfomed on POPC SUV (2 mM) with and without peptides. We chose a toxic peptide, [Arg^2] TG, and a non-toxic peptide, [Leu^4] TG. The average diameter of the SUV in this preparation is about 21±6 nm (when counting the size distribution by numer).

HeLa cells [5] = test: Fluorescence microscopy of FITC-labelled peptides; format: cell-based, human; conditions: 0.5 μM, 3 hours; for state of the cells / membrane lysis: bright field; for cellular localization of the fluorescent label: green fluorescence
Method: HeLa cells were treated for 3 hours with 0.5 μM of TG and [Lys^6] […] The cells treated with [FITC^11] […] Conversely, treatment with [Lys^6, FITC^11] […] It has been shown that some AMP act not on the plasma membrane, but on the mitochondria.
HeLa cells were washed with PBS (NaCl 137 mM, KCl 2.7 mM, Na2HPO4 10 mM, KH2PO4 1.8 mM, pH 7.4), detached with 0.05% trypsin–EDTA solution and centrifuged for 3 min at 300 × g. The pellet was resuspended in DMEM medium and cells were counted by using trypan blue exclusion method. Then, 5 × 10^3 cells were seeded on custom chambers[58] with glass bottom, in 100 μL of complete DMEM medium and incubated at 37 °C in a humidified atmosphere with 5% CO2. After 24 h, cells were washed with PBS and incubated for 3 hours with […] of [FITC^11] TG and [Lys^6, FITC^11] TG dissolved in DMEM. After this time, cells were carefully washed with PBS, then 50 μL of PBS supplemented with calcium and magnesium (NaCl 137 mM, KCl 2.7 mM, Na2HPO4 10 mM, KH2PO4 1.8 mM, CaCl2 1 mM, MgCl2 0.5 mM, pH 7.4) was added to each chamber. Finally, chambers were mounted on the microscope stage for analysis. Micrographs were acquired on a Zeiss Axiovert 200 inverted microscope equipped with XBO xenon 75 W short arc lamp and a Photometrics Coolsnap FX CCD camera (Roper Scientific) with Metafluor Imaging Software version 6.1r6 (Universal Imaging Inc.) at λexc = 500 nm, λem = 545 nm.
We performed fluorescence microscopy experiments with rhodamine, which selectively stains mitochondria, to exclude that TG analogs penetrate inside the mitochondria and are localized only on the plasmatic membrane. Rhodamine staining is shown in FigureS5.B in red. The merged images of the experiments on [FITC^11]

Compound: CCCCCCCC(=O)NC(C)(C)C(=O)NCC(=O)N[C@@H](CC(C)C)C(=O)NC(C)(C)C(=O)NCC(=O)NCC(=O)N[C@@H](CC(C)C)C(=O)NC(C)(C)C(=O)NCC(=O)N[C@H](C(=O)N[C@H](CO)CC(C)C)[C@@H](C)CC [TG, 1-Oct-Aib-Gly-Leu-Aib-Gly-Gly-Leu-Aib-Gly-Ile-Lol, reference compound] (Octanoyl-[Aib]GL[Aib]GGL[Aib]GI[Leu(ol)])
- EC50 (HeLa cells [1]): 8 µM
- EC50 [2]: 2 µM
- EC50 [3]: 4 µM

Compound: CCCCCCCC(=O)NC(C)(C)C(=O)NCC(=O)N[C@@H](CC(C)C)C(=O)NC(C)(C)C(=O)NCC(=O)NCC(=O)N[C@@H](CC(C)C)C(=O)NC1(C(=O)NCC(=O)N[C@H](C(=O)N[C@H](CO)CC(C)C)[C@@H](C)CC)CCNCC1 [[Api^8] TG, Oct-UGLUGGLZGI-Lol] (Octanoyl-[Aib]GL[Aib]GGL[Api]GI[Leu(ol)])
- EC50 (HeLa cells [1]): > 20 µM
- EC50 [3]: > 20 µM
- cytotoxicity / selectivity in words (T67, HeLa and HDF cells): selective cytotoxicity towards a cancer cell line

Compound: CCCCCCCC(=O)NC(C)(C)C(=O)N[C@@H](CCCNC(=N)N)C(=O)N[C@@H](CC(C)C)C(=O)NC(C)(C)C(=O)NCC(=O)NCC(=O)N[C@@H](CC(C)C)C(=O)NC(C)(C)C(=O)NCC(=O)N[C@H](C(=O)N[C@H](CO)CC(C)C)[C@@H](C)CC [[Arg^2] TG, Oct-URLUGGLUGI-Lol] (Octanoyl-[Aib]RL[Aib]GGL[Aib]GI[Leu(ol)])
- EC50 (HeLa cells [1]): 4 µM
- EC50 [2]: 8 µM
- EC50 [3]: 8 µM
- DLS Distribution by Number Peak 1, diameter [4]: 24 nm
- DLS Distribution by Number Peak 1, fraction [4]: 100%
- DLS Distribution by Volume Peak 1, diameter [4]: 28 nm
- DLS Distribution by Volume Peak 1, fraction [4]: 92%
- DLS Distribution by Volume Peak 2, diameter [4]: 5430 nm
- DLS Distribution by Volume Peak 2, fraction [4]: 3%
- DLS Distribution by Volume Peak 3, diameter [4]: 135 nm
- DLS Distribution by Volume Peak 3, fraction [4]: 5%
- effect of peptide on the dimension of the vesicles [4]: does not alter the dimension of the vesicles in a significant way

Compound: CCCCCCCC(=O)NC(C)(C)C(=O)NCC(=O)N[C@@H](CC(C)C)C(=O)NC(C)(C)C(=O)NCC(=O)N[C@@H](CCCCN)C(=O)N[C@@H](CC(C)C)C(=O)NC(C)(C)C(=O)NCC(=O)N[C@H](C(=O)N[C@H](CO)CC(C)C)[C@@H](C)CC [[Lys^6] TG, Oct-UGLUGKLUGI-Lol]
- EC50 (HeLa cells [1]): 2 µM
- EC50 [2]: 4 µM
- EC50 [3]: 2 µM

Compound: CCCCCCCC(=O)NC1(C(=O)N[C@@H](CCCNC(=N)N)C(=O)N[C@@H](CC(C)C)C(=O)NC(C)(C)C(=O)NCC(=O)NCC(=O)N[C@@H](CC(C)C)C(=O)NC(C)(C)C(=O)NCC(=O)N[C@H](C(=O)N[C@H](CO)CC(C)C)[C@@H](C)CC)CC(C)(C)N([O])C(C)(C)C1 [[TOAC^1, Arg^2] TG, Oct-XRLUGGLUGI-Lol] (Octanoyl-[TOAC]RL[Aib]GGL[Aib]GI[Leu(ol)])
- EC50 (HeLa cells [1]): 9 µM
- EC50 [2]: 8 µM
- EC50 [3]: 15 µM

Compound: CCCCCCCC(=O)NC1(C(=O)NCC(=O)N[C@@H](CC(C)C)C(=O)NC(C)(C)C(=O)NCC(=O)NCC(=O)N[C@@H](CC(C)C)C(=O)NC(C)(C)C(=O)N[C@@H](CCCNC(=N)N)C(=O)N[C@H](C(=O)N[C@H](CO)CC(C)C)[C@@H](C)CC)CC(C)(C)N([O])C(C)(C)C1 [[TOAC^1, Arg^9] TG, Oct-XGLUGGLURI-Lol] (Octanoyl-[TOAC]GL[Aib]GGL[Aib]RI[Leu(ol)])
- EC50 (HeLa cells [1]): 5 µM
- EC50 [2]: 8 µM
- EC50 [3]: 8 µM

Compound: CCCCCCCC(=O)NC1(C(=O)NCC(=O)N[C@@H](CC(C)C)C(=O)N[C@@H](CC(C)C)C(=O)NCC(=O)NCC(=O)N[C@@H](CC(C)C)C(=O)NC(C)(C)C(=O)NCC(=O)N[C@H](C(=O)N[C@H](CO)CC(C)C)[C@@H](C)CC)CC(C)(C)N([O])C(C)(C)C1 [[TOAC^1, Leu^4] TG, Oct-XGLLGGLUGI-Lol] (Octanoyl-[TOAC]GLLGGL[Aib]GI[Leu(ol)])
- cytotoxicity / selectivity in words (T67, HeLa and HDF cells): no toxicity

Compound: CCCCCCCC(=O)NC1(C(=O)NCC(=O)N[C@@H](CC(C)C)C(=O)NC(C)(C)C(=O)N[C@@H](CCCCN)C(=O)N[C@@H](CCCCN)C(=O)N[C@@H](CC(C)C)C(=O)NC(C)(C)C(=O)NCC(=O)N[C@H](C(=O)N[C@H](CO)CC(C)C)[C@@H](C)CC)CC(C)(C)N([O])C(C)(C)C1 [[TOAC^1, Lys^5,6] TG, Oct-XGLUKKLUGI-Lol]
- EC50 (HeLa cells [1]): 6 µM
- EC50 [2]: 10 µM
- EC50 [3]: 15 µM

Compound: CCCCCCCC(=O)NC1(C(=O)NCC(=O)N[C@@H](CC(C)C)C(=O)NC(C)(C)C(=O)NCC(=O)N[C@@H](CCCCN)C(=O)N[C@@H](CC(C)C)C(=O)NC(C)(C)C(=O)NCC(=O)N[C@H](C(=O)N[C@H](CO)CC(C)C)[C@@H](C)CC)CC(C)(C)N([O])C(C)(C)C1 [[TOAC^1, Lys^6] TG, Oct-XGLUGKLUGI-Lol]
- EC50 (HeLa cells [1]): 3 µM
- EC50 [2]: 1 µM
- EC50 [3]: 5 µM
- cytotoxicity / selectivity in words (T67, HeLa and HDF cells): most toxic peptide on all the cell lines

Compound: Oct-UGLLGGLUGI-Lol [[Leu^4] TG]
- EC50 (HeLa cells [1]): > 20 µM
- EC50 [2]: > 20 µM
- EC50 [3]: > 20 µM
- DLS Distribution by Number Peak 1, diameter [4]: 20 nm
- DLS Distribution by Number Peak 1, fraction [4]: 100%
- DLS Distribution by Volume Peak 1, diameter [4]: 30 nm
- DLS Distribution by Volume Peak 1, fraction [4]: 96%
- DLS Distribution by Volume Peak 2, diameter [4]: 4993 nm
- DLS Distribution by Volume Peak 2, fraction [4]: 4%
- effect of peptide on the dimension of the vesicles [4]: does not alter the dimension of the vesicles in a significant way

Compound: Oct-UGLUGGLUGIL-FITC [[FITC^11] TG]
- state of the cells / membrane lysis (HeLa cells [5]): keeps the cells intact; also recorded: largely intact
- cellular localization of the fluorescent label (HeLa cells [5]): mainly located in the outer plasma membrane
- colocalization with rhodamine (mitochondria) (HeLa cells [5]; rhodamine staining): no significant colocalization

Compound: Oct-UGLUGKLUGIL- FITC [[Lys^6, FITC^11] TG]
- state of the cells / membrane lysis (HeLa cells [5]): severe membrane lysis
- cellular localization of the fluorescent label (HeLa cells [5]): mainly located in the outer plasma membrane

Compound: Oct-XGLUGGLLGI-Lol [[TOAC^1, Leu^8] TG]
- EC50 (HeLa cells [1]): > 20 µM
- EC50 [2]: > 20 µM
- EC50 [3]: > 20 µM
